# Laboratory results: US20220242870A1, “HETEROCYCLE-FUSED PYRIMIDINE DERIVATIVE AND USE THEREOF” (VORONOI Inc., priority 2019, published 2022)
# Assays:
# human FLT3-ITD enzyme = molecular target: T1, human FLT3-ITD enzyme (Homo sapiens, UniProt P36888); test: FLT3 enzyme inhibitory ability (ADP-Glo kinase assay); format: biochemical; conditions: human FLT3-ITD enzyme 10 ng, ATP 10 μM, 25° C. 1 hour
# T1 sequence (P36888 1-993): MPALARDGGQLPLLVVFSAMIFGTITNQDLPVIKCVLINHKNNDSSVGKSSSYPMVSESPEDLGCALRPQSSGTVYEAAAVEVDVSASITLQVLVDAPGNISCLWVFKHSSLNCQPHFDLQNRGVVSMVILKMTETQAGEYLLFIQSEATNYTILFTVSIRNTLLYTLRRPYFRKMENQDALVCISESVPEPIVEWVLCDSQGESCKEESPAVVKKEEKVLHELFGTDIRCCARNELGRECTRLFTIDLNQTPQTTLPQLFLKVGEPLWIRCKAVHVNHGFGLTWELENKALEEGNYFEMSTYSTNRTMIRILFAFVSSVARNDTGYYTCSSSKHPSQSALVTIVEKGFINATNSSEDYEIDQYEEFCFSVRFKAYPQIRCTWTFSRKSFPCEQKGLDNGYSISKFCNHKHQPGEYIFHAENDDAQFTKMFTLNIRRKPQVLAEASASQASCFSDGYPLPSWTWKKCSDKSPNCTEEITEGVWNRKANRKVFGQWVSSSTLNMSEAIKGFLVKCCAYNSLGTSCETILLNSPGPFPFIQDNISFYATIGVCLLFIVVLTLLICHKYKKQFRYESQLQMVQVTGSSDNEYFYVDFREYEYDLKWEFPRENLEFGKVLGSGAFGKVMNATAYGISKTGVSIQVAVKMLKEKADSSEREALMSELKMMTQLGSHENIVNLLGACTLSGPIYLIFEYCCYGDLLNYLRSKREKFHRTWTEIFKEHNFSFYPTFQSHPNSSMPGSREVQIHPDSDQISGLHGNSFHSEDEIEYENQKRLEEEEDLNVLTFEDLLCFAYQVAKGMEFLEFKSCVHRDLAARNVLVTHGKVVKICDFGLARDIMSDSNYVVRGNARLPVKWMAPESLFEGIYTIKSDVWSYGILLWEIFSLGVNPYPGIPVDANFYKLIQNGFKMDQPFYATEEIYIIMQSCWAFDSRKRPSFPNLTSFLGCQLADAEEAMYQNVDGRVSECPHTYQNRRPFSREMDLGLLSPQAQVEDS
# How it was run: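 Purified human FLT3-ITD (10 ng) with 10 μM ATP and specific substrate in 40 mM Tris-HCl pH 7.4, 20 mM MgCl2, 0.5 mg/mL BSA, 50 μM DTT, 1 h at 25 °C. ADP formation read by ADP-Glo luminescence; IC50 (nM) versus solvent-treated control.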
# human GST-HPK1 (1-346) = molecular target: T2, human GST-HPK1 (1-346) (Homo sapiens, UniProt Q92918); test: HPK1 enzyme inhibitory ability (ADP-Glo kinase assay); format: biochemical; conditions: human GST-HPK1 3 ng, ATP 3 uM, 25° C. 2 hours
# T2 construct: purified human GST-HPK1 (1-346, Signalchem) enzyme; purchased Signalchem
# T2 sequence (Q92918 1-346): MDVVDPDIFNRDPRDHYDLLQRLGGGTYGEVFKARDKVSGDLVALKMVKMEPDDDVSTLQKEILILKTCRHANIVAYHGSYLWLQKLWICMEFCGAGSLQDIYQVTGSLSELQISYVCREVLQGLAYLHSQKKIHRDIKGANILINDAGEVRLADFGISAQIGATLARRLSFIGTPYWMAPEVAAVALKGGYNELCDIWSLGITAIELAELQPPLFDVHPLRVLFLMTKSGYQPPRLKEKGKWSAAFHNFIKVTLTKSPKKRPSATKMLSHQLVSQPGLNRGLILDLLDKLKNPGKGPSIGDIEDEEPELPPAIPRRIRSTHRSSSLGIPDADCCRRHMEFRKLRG
# How it was run: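 Human GST-HPK1(1-346), 3 ng, reacted with 3 uM ATP and specific substrate in 40 mM Tris-HCl pH 7.4, 20 mM MgCl2, 0.5 mg/mL BSA, 50 uM DTT for 2 h at 25° C. ADP-Glo luminescence read; IC50 (nM) relative to untreated solvent control.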
# MV4-11 cells = test: AML cell proliferation inhibitory activity (CellTiter-Glo); format: cell-based; conditions: Homo sapiens, 72 hours
# Method: The inhibitory activities of the example compounds according to the present invention on the proliferation of acute myeloid leukemia (AML) cells expressing the FLT3 mutant gene were evaluated. Specifically, RS4;11 and MV4-11 cells as acute myeloid leukemia cells expressing the FLT3 mutant gene were cultured in RPMI-1640 (Invitrogen) adding 10% FBS. The cells were seeded into each well of a clear bottom white 96-well plate (Corning) at 3000 to 5000 cells 24 hours before compound treatment. The compound was diluted in DMSO (diluted each three-fold, to a total of 12 concentrations) and injected at 0.5 μL each so as to be a final concentration of 0.3 nM to 50 μM. After 72 hours of the compound treatment, they were treated with CellTiter-Glo Luminescent Cell Viability assay (Promega) and stored at room temperature for 10 minutes, and luminescence intensities were measured with a reader (SynergyNeo, Biotek) to count viable cells. Each experiment was performed three times repeatedly. The result values were calculated as the cell growth rate (%) compared to the control treated with the solvent. The graph was derived using the GraphPad Prism program (version 5.0), the GI50 (nM) values were calculated, and the results were shown in Table 3 below.
# MCF-7 cells = test: Breast cancer cell line proliferation inhibitory activity (CellTiter-Glo 2.0); format: cell-based; conditions: Homo sapiens, MCF7, 120 hours
# Method: In order to evaluate the breast cancer cell line cell proliferation inhibitory activities of Examples according to the present invention, the following experiment was performed. Breast cancer cells of MCF-7 (Korean Cell Line Bank) were planted in a clear bottom white 96-well plate (Corning) so as to be 3×10^3/150 μl/well, and a culture solution comprising the compound continuously diluted in multiples of 3 at 12 concentrations (0.00001-2 mM) and a DMSO control group was added by 0.5 μl/well and treated so that the final concentration was 0.00005-10 μM, and then cultured in a 37° C. CO2 incubator for 120 hours. After 120 hours, the plate treated with the compound is taken out, and CellTiter-Glo® 2.0 Assay (Promega) solution is treated at 150 μl/well and then they mix well. They mix well at room temperature for 10 minutes or so, and the fluorescence is measured with a microplate reader. The data were expressed as a percentage in proportion to the vehicle standard treated cells, the GI50 (nM) values were calculated using GraphPad Prism 8.3.0 (GraphPad software Inc., San Diego), and the results were shown in Table 3 below.
IC50 (human FLT3-ITD enzyme) [nM],IC50 (human GST-HPK1 (1-346)) [nM],GI50 (MV4-11 cells) [nM],GI50 (MCF-7 cells) [nM],Structure (SMILES)
250 to 500,> 500,> 500,> 500,"CN1CCN(c2ccc(Nc3nc(N4N=CCC4c4ccccc4)c4sccc4n3)cc2)CC1 (stereo not drawn) [Example 1, N-(4-(4-methylpiperazin-1-yl)phenyl)-4-(5-phenyl-4,5-dihydro-1H-pyrazol-1-yl)thieno[3,2-d]pyrimidin-2-amine]"
,,> 500,,"C1=NN(c2nc(Nc3ccc(N4CCOCC4)cc3)nc3ccsc23)C(c2ccccc2)C1 (stereo not drawn) [Example 3, N-(4-morpholinophenyl)-4-(5-phenyl-4,5-dihydro-1H-pyrazol-1-yl)thieno[3,2-d]pyrimidin-2-amine]"
> 500,,> 500,,"CN1CCN(c2ccc(Nc3nc(N4N=CCC4c4ccccc4)c4sccc4n3)nc2)CC1 (stereo not drawn) [Example 4, N-(5-(4-methylpiperazin-1-yl)pyridin-2-yl)-4-(5-phenyl-4,5-dihydro-1H-pyrazol-1-yl)thieno[3,2-d]pyrimidin-2-amine]"
> 500,> 500,> 500,> 500,"COc1cc(N2CCN(C)CC2)ccc1Nc1nc(N2N=CCC2c2ccccc2)c2sccc2n1 (stereo not drawn) [Example 6, N-(2-methoxy-4-(4-methylpiperazin-1-yl)phenyl)-4-(5-phenyl-4,5-dihydro-1H-pyrazol-1-yl)thieno[3,2-d]pyrimidin-2-amine]"
> 500,> 500,≥ 250,> 500,"COc1cc(Nc2nc(N3N=CCC3c3ccccc3)c3sccc3n2)ccc1N1CCC(N2CCN(C)CC2)CC1 (stereo not drawn) [Example 8, N-(3-methoxy-4-(4-(4-methylpiperazin-1-yl)piperidin-1-yl)phenyl)-4-(5-phenyl-4,5-dihydro-1H-pyrazol-1-yl)thieno[3,2-d]pyrimidin-2-amine]"
≥ 250,,> 500,,"COc1cc(N2CCC(N3CCN(C)CC3)CC2)ccc1Nc1nc(N2N=CCC2c2ccccc2)c2sccc2n1 (stereo not drawn) [Example 10, N-(2-methoxy-4-(4-(4-methylpiperazin-1-yl)piperidin-1-yl)phenyl)-4-(5-phenyl-4,5-dihydro-1H-pyrazol-1-yl)thieno[3,2-d]pyrimidin-2-amine]"
,,> 500,,"Cc1cc(N2CCOCC2)ccc1Nc1nc(N2N=CCC2c2ccccc2)c2sccc2n1 (stereo not drawn) [Example 21, N-(2-methyl-4-morpholinophenyl)-4-(5-phenyl-4,5-dihydro-1H-pyrazol-1-yl)thieno[3,2-d]pyrimidin-2-amine]"
,,> 500,,"O=C(c1ccc(Nc2nc(N3N=CCC3c3ccccc3)c3sccc3n2)cc1)N1CCOCC1 (stereo not drawn) [Example 22, morpholino(4-((4-(5-phenyl-4,5-dihydro-1H-pyrazol-1-yl)thieno[3,2-d]pyrimidin-2-yl)amino)phenyl)methanone]"
,,> 500,,"Cc1cn(Cc2ccc(Nc3nc(N4N=CCC4c4ccccc4)c4sccc4n3)cc2)cn1 (stereo not drawn) [Example 23, N-(4-((4-methyl-1H-imidazol-1-yl)methyl)phenyl)-4-(5-phenyl-4,5-dihydro-1H-pyrazol-1-yl)thieno[3,2-d]pyrimidin-2-amine]"
,,> 500,,"Cc1cn(Cc2cccc(Nc3nc(N4N=CCC4c4ccccc4)c4sccc4n3)c2)cn1 (stereo not drawn) [Example 24, N-(3-((4-methyl-1H-imidazol-1-yl)methyl)phenyl)-4-(5-phenyl-4,5-dihydro-1H-pyrazol-1-yl)thieno[3,2-d]pyrimidin-2-amine]"
,,> 500,,"CN(C)CCn1cc(Nc2nc(N3N=CCC3c3ccccc3)c3sccc3n2)cn1 (stereo not drawn) [Example 27, N-(1-(2-(dimethylamino)ethyl)-1H-pyrazol-4-yl)-4-(5-phenyl-4,5-dihydro-1H-pyrazol-1-yl)thieno[3,2-d]pyrimidin-2-amine]"
> 500,,≥ 250,,"COc1cc(Nc2nc(N3N=CCC3c3ccccc3)c3sccc3n2)ccc1C(=O)NC1CCN(C)CC1 (stereo not drawn) [Example 52, 2-methoxy-N-(1-methylpiperidin-4-yl)-4-((4-(5-phenyl-4,5-dihydro-1H-pyrazol-1-yl)thieno[3,2-d]pyrimidin-2-yl)amino)benzamide]"
> 500,> 500,,≥ 250,"COc1cc(N2CCC(N3CCN(C)CC3)CC2)ccc1Nc1nc(N2OCC[C@H]2c2ccccc2)c2c(C#N)c[nH]c2n1 [Example 121, (S)-2-((2-methoxy-4-(4-(4-methylpiperazin-1-yl)piperidin-1-yl)phenyl)amino)-4-(3-phenylisoxazolidin-2-yl)-7H-pyrrolo[2,3-d]pyrimidine-5-carbonitrile]"
> 500,> 500,,> 500,"CN(C)[C@@H]1CCN(c2cccc(Nc3nc(N4OCC[C@@H]4c4ccccc4)c4cc[nH]c4n3)c2)C1 [Example 125, N-(3-((R)-3-(dimethylamino)pyrrolidin-1-yl)phenyl)-4-((R)-3-phenylisoxazolidin-2-yl)-7H-pyrrolo[2,3-d]pyrimidin-2-amine]"
> 500,> 500,,> 500,"CN(C)[C@H]1CCN(c2cccc(Nc3nc(N4OCC[C@@H]4c4ccccc4)c4cc[nH]c4n3)c2)C1 [Example 126, N-(3-((S)-3-(dimethylamino)pyrrolidin-1-yl)phenyl)-4-((R)-3-phenylisoxazolidin-2-yl)-7H-pyrrolo[2,3-d]pyrimidin-2-amine]"
,,250 to 500,,"CN1CCN(c2ccc(Nc3nc(N4OCC[C@@H]4c4ccccc4)c4cc[nH]c4n3)cc2)CC1 [Example 128, (R)-N-(4-(4-methylpiperazin-1-yl)phenyl)-4-(3-phenylisoxazolidin-2-yl)-7H-pyrrolo[2,3-d]pyrimidin-2-amine]"
> 500,,250 to 500,,"COc1cc(Nc2nc(N3OCC[C@@H]3c3ccccc3)c3cc[nH]c3n2)ccc1N1CCC(N2CCN(C)CC2)CC1 [Example 129, (R)-N-(3-methoxy-4-(4-(4-methylpiperazin-1-yl)piperidin-1-yl)phenyl)-4-(3-phenylisoxazolidin-2-yl)-7H-pyrrolo[2,3-d]pyrimidin-2-amine]"
